The structures appear in SMILES notation.

From US12419305B2, “Antimicrobial compositions” (Firmenich SA, priority 2018, dated 2025) come the findings set out here.

In one experiment the test system is S. haemolyticus 114126. In words: BCT test (bacterial contact time), 120 s, log reduction / effect fraction; CI by Compusyn. Type of experiment: cell-based. As to conditions: Staphylococcus haemolyticus, 114126, 2 min, contact 120 s, 25% EtOH. The procedure, abridged: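 S. haemolyticus 114126 (skin isolate), grown to OD600 1-2 in BHI-TW80 and resuspended at 1-5×10^8 CFU/mL, was mixed 1:1 with ethanolic perfume compositions or ethanol alone for 45, 60 or 120 s. Viable counts came from serial-dilution regrowth (37 °C, turbidity OD600), giving log reduction versus ethanol control; CI was computed from concentration–effect fraction pairs.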

A further experiment concerns E. coli ATCC 10536. In words: BCT test (bacterial contact time), 45 s, log reduction / effect fraction; CI by Compusyn. Type of experiment: cell-based, Escherichia coli. Conditions: Escherichia coli, ATCC10536, 45 s, 45 s, in 20% EtOH. The procedure, abridged: (§1)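 Perfume ingredients, alone or combined, in ethanol were mixed 1:1 with ~1×10^8 CFU/mL log-phase bacteria in TSB for the stated contact time. Survivors were estimated by serial dilution and OD600 growth at 37 °C; log reduction versus ethanol control. CI from effect fractions via Compusyn (<0.9 synergy, >1.0 antagonism).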

The next experiment relates to S. aureus ATCC 6538. In words: BCT test (bacterial contact time), 60 s, log reduction / effect fraction; CI by Compusyn. Type of experiment: cell-based, Staphylococcus aureus. As to conditions: Staphylococcus aureus, ATCC6538, 1 min, 60 s, in 25% EtOH. In outline: as §1
Experiment [1] deals with Pseudomonas aeruginosa ATCC 15442. The description is as above. In kind it is cell-based. Conditions: Pseudomonas aeruginosa, ATCC15442, 1 min, BCT 60 s, in 25% EtOH. In outline: as §1
Experiment [2] relates to Salmonella enterica ATCC 10708. The experiment is described as above. In kind it is cell-based. As to conditions: Salmonella enterica, ATCC10708, 1 min, BCT 60 s, in 25% EtOH. The procedure, abridged: as §1

With `OC/C=C/c1ccccc1` [Cinnamic alcohol, (2E)-3-phenyl-2-propen-1-ol], the log reduction at 0.25 % strength in the experiment with S. haemolyticus 114126 (dose 0.25% w/v, read-out: Log reduction) stood at 0.2; with E. coli ATCC 10536 (dose 0.250 % w/v) it was 0.6; in experiment [1] (Dose 0.25 % w/v, read-out: Log reduction) it was 4.1; in experiment [2] (Dose 0.25 % w/v), 4.9. Further, the log reduction at 0.5 % strength in the experiment with S. haemolyticus 114126 (dose 0.5% w/v) stood at 4.1; in the experiment with S. aureus ATCC 6538 (dose 0.500 % w/v, read-out: Log reduction), 6.9. In the experiment on S. haemolyticus 114126 (dose 1.0% w/v), the log reduction at 1 % strength came to 7.3. Also, in the experiment on S. haemolyticus 114126 (dose 1.25% w/v), the log reduction at 1.25 % strength is 7.3. Further, the log reduction at 1.5 % strength with S. haemolyticus 114126 (dose 1.5% w/v) was determined as 7.3. Besides, the log reduction at 0.2 % strength was found to be 0.1 with E. coli ATCC 10536 (dose 0.200 % w/v) and 1.5 in experiment [2] (Dose 0.2 % w/v). For the same molecule, the log reduction at 0.3 % strength with E. coli ATCC 10536 (dose 0.300 % w/v) amounted to 1.4; with S. aureus ATCC 6538 (dose 0.300 % w/v, read-out: Log reduction), 1.8; in experiment [1] (Dose 0.3 % w/v, read-out: Log reduction), 6.7; in experiment [2] (Dose 0.3 % w/v), 7.8. Further, the log reduction at 0.35 % strength worked out at 4.2 in the experiment with E. coli ATCC 10536 (dose 0.350 % w/v) and 2.6 in the experiment on S. aureus ATCC 6538 (dose 0.350 % w/v, read-out: Log reduction). In addition, the log reduction at 0.4 % strength came to 7.3 in the experiment on E. coli ATCC 10536 (dose 0.400 % w/v); 5.5 in the experiment with S. aureus ATCC 6538 (dose 0.400 % w/v, read-out: Log reduction); 7.5 in experiment [1] (Dose 0.4 % w/v, read-out: Log reduction). In the experiment with S. aureus ATCC 6538 (dose 0.45 % w/v), the log reduction at 0.45 % strength is 6.9. For the same molecule, in experiment [2] (Dose 0.15 % w/v), the log reduction at 0.15 % strength amounted to 0.5. Also, the log reduction at 0.175 % strength in experiment [2] (Dose 0.175 % w/v) came to 1.
Take `CC(C)=CCC/C(C)=C/CO` [Geraniol Pur]: the log reduction at 0.05 % strength is -0.2 in the experiment with S. haemolyticus 114126 (dose 0.05% w/v); 1.9 in the experiment on E. coli ATCC 10536 (dose 0.050 % w/v); 0.2 with S. aureus ATCC 6538 (dose 0.050 % w/v); 3.9 in experiment [1] (Dose 0.05 % w/v); 4.9 in experiment [2] (Dose 0.05 % w/v, read-out: Log reduction). Also, the log reduction at 0.1 % strength is 2.7 in the experiment on S. haemolyticus 114126 (dose 0.1% w/v) and 7.3 in the experiment on S. aureus ATCC 6538 (dose 0.100 % w/v). In addition, in the experiment with S. haemolyticus 114126 (dose 0.125% w/v), the log reduction at 0.125 % strength is 5.3. In addition, the log reduction at 0.15 % strength with S. haemolyticus 114126 (dose 0.15% w/v) amounted to 7.1. Besides, the log reduction at 0.04 % strength with E. coli ATCC 10536 (dose 0.040 % w/v) stood at 0.4; in experiment [1] (Dose 0.040 % w/v) it was 1.4; in experiment [2] (Dose 0.04 % w/v), 2.4. Besides, the results for the log reduction at 0.06 % strength (with E. coli ATCC 10536 (dose 0.060 % w/v); with S. aureus ATCC 6538 (dose 0.060 % w/v); in experiment [1] (Dose 0.06 % w/v)) were 6.4, 0.4 and 5.9, respectively. Besides, the results for the log reduction at 0.07 % strength in the experiment on E. coli ATCC 10536 (dose 0.070 % w/v) and with S. aureus ATCC 6538 (dose 0.070 % w/v) were 7.4 and 1.5, respectively. The results for the log reduction at 0.08 % strength (in the experiment with E. coli ATCC 10536 (dose 0.080 % w/v); with S. aureus ATCC 6538 (dose 0.080 % w/v); in experiment [1] (Dose 0.08 % w/v)) were 7.4, 4 and 7.5, respectively. Also, the log reduction at 0.03 % strength in experiment [1] (Dose 0.03 % w/v) and in experiment [2] (Dose 0.03 % w/v) was 0.2 throughout. For the same molecule, in experiment [2] (Dose 0.025 % w/v), the log reduction at 0.025 % strength turned out to be 0.2. In experiment [2] (Dose 0.045 % w/v), the log reduction at 0.045 % strength is 3.6.
